Reference: ChEMBL document CHEMBL1201862, “PubChem BioAssay data set” (2004)
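Five compound concentrations were applied to cells in 96-well plates for 48 hours; endpoints were derived by simple linear interpolation of the resulting dose-response curve. Here, GI50 denotes the concentration required for 50% inhibition of growth.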 The source made the active and inactive calls. No stated cut-off is given here; in the data, active = GI50 up to about 1.1 µM and inactive = higher.

What was measured:
Experiment in all cases: NCI tumour cell line growth inhibition, 48 h
[1] = system: 786-0
[2] = system: A498
[3] = system: ACHN
[4] = system: CCRF-CEM
[5] = system: DLD-1
[6] = system: DMS-114
[7] = system: EKVX
[8] = system: HCC 2998
[9] = system: HCT-116
[10] = system: HCT-15
[11] = system: HOP-62
[12] = system: HT-29
[13] = system: K562
[14] = system: KM-20L2
[15] = system: KM12
[16] = system: LOX IMVI
[17] = system: LXFL 529
[18] = system: M14
[19] = system: M19-MEL
[20] = system: MOLT-4
[21] = system: Malme-3M
[22] = system: NCI-H23
[23] = system: NCI-H460
[24] = system: NCI-H522
[25] = system: OVCAR-3
[26] = system: OVCAR-4
[27] = system: OVCAR-5
[28] = system: OVCAR-8
[29] = system: RPMI-8226
[30] = system: RXF 393
[31] = system: RXF 631
[32] = system: SF-268
[33] = system: SF-295
[34] = system: SF-539
[35] = system: SK-MEL-28
[36] = system: SK-OV-3
[37] = system: SN12C
[38] = system: SNB-19
[39] = system: SNB-75
[40] = system: SNB-78
[41] = system: TK-10
[42] = system: U-251
[43] = system: UACC-257
[44] = system: UACC-62
[45] = system: UO-31
[46] = system: XF498
[47] = system: A549
[48] = system: CAKI-1
[49] = system: COLO 205
[50] = system: DMS-273
[51] = system: HL-60
[52] = system: HOP-92
[53] = system: IGROV-1
[54] = system: SK-MEL-2
[55] = system: SK-MEL-5
[56] = system: SW-620

What does the source list for Cc1ccc(-n2nc(C(OC3OC(CO)C(O)C(O)C3O)C(O)CO)c3nc4cc(C)c(C)cc4nc32)cc1 (stereo unspecified)?
GI50 [1]: > 100 µM (inactive); GI50 [2]: > 100 µM (inactive); GI50 [3]: > 100 µM (inactive); GI50 [4]: > 100 µM (inactive); GI50 [5]: > 100 µM (inactive); GI50 [6]: > 100 µM (inactive); GI50 [7]: > 100 µM (inactive); GI50 [8]: > 100 µM (inactive); GI50 [9]: > 100 µM (inactive); GI50 [10]: > 100 µM; GI50 [11]: > 100 µM (inactive); GI50 [12]: > 100 µM (inactive); GI50 [13]: > 100 µM (inactive); GI50 [14]: > 100 µM (inactive); GI50 [15]: > 100 µM (inactive); GI50 [16]: > 100 µM (inactive); GI50 [17]: > 100 µM (inactive); GI50 [18]: > 100 µM (inactive); GI50 [19]: > 100 µM (inactive); GI50 [20]: > 100 µM (inactive); GI50 [21]: > 100 µM (inactive); GI50 [22]: > 100 µM (inactive); GI50 [23]: > 100 µM (inactive); GI50 [24]: > 100 µM (inactive); GI50 [25]: > 100 µM (inactive); GI50 [26]: 99.1 µM (inactive); GI50 [27]: > 100 µM (inactive); GI50 [28]: > 100 µM (inactive); GI50 [29]: > 100 µM (inactive); GI50 [30]: 36.2 µM (inactive); GI50 [31]: > 100 µM (inactive); GI50 [32]: > 100 µM (inactive); GI50 [33]: > 100 µM (inactive); GI50 [34]: > 100 µM (inactive); GI50 [35]: > 100 µM (inactive); GI50 [36]: > 100 µM (inactive); GI50 [37]: > 100 µM (inactive); GI50 [38]: > 100 µM (inactive); GI50 [39]: 34 µM (inactive); GI50 [40]: > 100 µM (inactive); GI50 [41]: > 100 µM (inactive); GI50 [42]: > 100 µM (inactive); GI50 [43]: > 100 µM (inactive); GI50 [44]: > 100 µM (inactive); GI50 [45]: > 100 µM (inactive); GI50 [46]: > 100 µM (inactive)

With CC(=O)CC(=O)OC1CC(C)CCC1C(C)C (stereo unspecified) as the molecule, how does the GI50 [1] read?
Its GI50 is > 100 µM (inactive).

And the GI50 [2]?
The GI50 was > 100 µM (inactive).

What about the GI50 [47] of the same molecule?
Its GI50 is 35.3 µM (inactive).

And the GI50 [3]?
The GI50 was > 100 µM (inactive).

What about the GI50 [48] of the same molecule?
The GI50 was > 100 µM (inactive).

And the GI50 [4]?
The GI50 was 11.7 µM (inactive).

What about the GI50 [49] of the same molecule?
Its GI50 is 96.2 µM (inactive).

What about the GI50 [5] of the same molecule?
Its GI50 is 24.7 µM (inactive).

What about the GI50 [6] of the same molecule?
Its GI50 is 37.2 µM (inactive).

And the GI50 [50]?
The GI50 was 41.9 µM (inactive).

What about the GI50 [7] of the same molecule?
The GI50 was > 100 µM (inactive).

And the GI50 [8]?
Its GI50 is 41.4 µM (inactive).

And the GI50 [9]?
The GI50 was 13.5 µM (inactive).

And the GI50 [10]?
The GI50 was 38.7 µM.

What about the GI50 [51] of the same molecule?
Its GI50 is 18.8 µM (inactive).

What about the GI50 [11] of the same molecule?
Its GI50 is 33.9 µM (inactive).

What about the GI50 [52] of the same molecule?
Its GI50 is 35 µM (inactive).

And the GI50 [12]?
The GI50 was 30 µM (inactive).

What about the GI50 [53] of the same molecule?
Its GI50 is 76.6 µM (inactive).

What about the GI50 [13] of the same molecule?
The GI50 was 16 µM (inactive).

And the GI50 [15]?
The GI50 was 37.8 µM (inactive).

What about the GI50 [16] of the same molecule?
Its GI50 is 47.6 µM (inactive).

And the GI50 [17]?
Its GI50 is 89.5 µM (inactive).

What about the GI50 [18] of the same molecule?
The GI50 was > 100 µM (inactive).

And the GI50 [19]?
Its GI50 is 34.6 µM (inactive).

What about the GI50 [20] of the same molecule?
Its GI50 is 17.3 µM (inactive).

What about the GI50 [21] of the same molecule?
Its GI50 is 40.7 µM (inactive).

And the GI50 [22]?
Its GI50 is 96.8 µM (inactive).

What about the GI50 [23] of the same molecule?
The GI50 was 53.3 µM (inactive).

What about the GI50 [24] of the same molecule?
Its GI50 is 39.7 µM (inactive).

And the GI50 [25]?
The GI50 was 26 µM (inactive).

And the GI50 [26]?
Its GI50 is 54.5 µM (inactive).

And the GI50 [27]?
The GI50 was > 100 µM (inactive).

What about the GI50 [28] of the same molecule?
The GI50 was 72.8 µM (inactive).

And the GI50 [29]?
Its GI50 is 15 µM (inactive).

And the GI50 [30]?
Its GI50 is 72.4 µM (inactive).

What about the GI50 [31] of the same molecule?
Its GI50 is > 100 µM (inactive).

And the GI50 [32]?
Its GI50 is 45.7 µM (inactive).

What about the GI50 [33] of the same molecule?
Its GI50 is 80.7 µM (inactive).

And the GI50 [34]?
Its GI50 is 36.8 µM (inactive).

And the GI50 [35]?
Its GI50 is 63.4 µM (inactive).

What about the GI50 [54] of the same molecule?
Its GI50 is 28.4 µM (inactive).

What about the GI50 [55] of the same molecule?
Its GI50 is 42.2 µM (inactive).

What about the GI50 [36] of the same molecule?
The GI50 was > 100 µM (inactive).

And the GI50 [37]?
Its GI50 is > 100 µM (inactive).

What about the GI50 [38] of the same molecule?
The GI50 was 78.5 µM (inactive).

What about the GI50 [39] of the same molecule?
The GI50 was 73.3 µM (inactive).

What about the GI50 [40] of the same molecule?
The GI50 was > 100 µM (inactive).

And the GI50 [56]?
The GI50 was 43.1 µM (inactive).

What about the GI50 [41] of the same molecule?
Its GI50 is > 100 µM (inactive).

And the GI50 [42]?
The GI50 was 47 µM (inactive).

And the GI50 [43]?
The GI50 was 77.4 µM (inactive).

And the GI50 [44]?
Its GI50 is 69.2 µM (inactive).

And the GI50 [45]?
Its GI50 is > 100 µM (inactive).

And the GI50 [46]?
Its GI50 is > 100 µM (inactive).
